# Measurements as given in the supplement of paper PMC5770543.
# ± gives the standard deviation.
# Legend:
# [1] = tested on: Plasmodium falciparum 3D7; assay: EC50 growth inhibition (60 h, SYBR Green); details: stage: ring-stage start
# [2] = tested on: Toxoplasma gondii RH tachyzoites; assay: % growth inhibition vs DMSO (48 h luciferase); higher = more inhibition; details: 10 µM;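 note: tested in triplicate wells of 96-well plates on confluent HFF monolayers, with 1% DMSO wells as negative control in four replicates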
# [3] = tested on: Plasmodium falciparum 3D7; assay: % inhibition of schizont-to-ring transition vs DMSO; higher = more inhibition
# In short: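 Schizont-to-ring transition inhibition compares new ring formation with that in vehicle controls. Synchronised P. falciparum schizonts (about 40–42 hours post-invasion, 1% parasitemia, 2.5% hematocrit, AlbuMAX-supplemented RPMI) were exposed to 1, 3 or 10 µM compound, after which rings were counted by Hoechst 33342 flow cytometry across three experiments.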
SMILES,EC50 growth inhibition [1],% growth inhibition [2],% inhibition of schizont-to-ring transition ([3]; 1 µM),% inhibition of schizont-to-ring transition ([3]; 3 µM),% inhibition of schizont-to-ring transition ([3]; 10 µM)
CC(=O)c1sc(NC(=O)Nc2ccc(C)cc2C)nc1C,1780 nM,67.5 ± 3.4%,10.5%,30.8%,49.7%
CCN1CCN(c2cc(C)c3cc(NC(=O)c4ccc(OC)c(OC)c4)ccc3n2)CC1,814 nM,56.5 ± 4.2%,21.3%,45.6%,63.3%
CCOC(=O)c1cnc2ccc(CC)cc2c1O,482 nM,78.7 ± 3.3%,49.9%,61.3%,62.8%
N=c1c2ccccc2nnn1-c1cccc(C(F)(F)F)c1,5760 nM,64.1 ± 4.6%,44.5%,48.1%,54.3%
O=C(NC1CCN(Cc2ccccc2)CC1)c1cc(-c2ccncc2)nc2ccc(Cl)cc12,1920 nM,54.7 ± 2.7%,22.1%,60.9%,63.4%
O=C(Nc1cccc(-c2nc3ccccc3[nH]2)c1)c1cccc(NC(=O)c2ccco2)c1,6230 nM,48.6 ± 19%,28.5%,37.6%,52%
Oc1ccccc1CNCC12CC3CC(CC(C3)C1)C2,96.1 nM,52.8 ± 12%,64%,64.7%,67.1%
CCCn1c(=N)c(C(=O)NC2CCCCC2)cc2c(=O)n3cccc(C)c3nc21,3810 nM,71.06 ± 0.62%,1.41%,20.4%,53.1%
CCCCCC(=O)N1c2ccccc2N=C2CC(c3ccc(OC)c(OC)c3)CC(O)=C2C1c1ccc(C(F)(F)F)cc1 (stereo not drawn),205 nM,60.4 ± 3%,47.1%,59.5%,73.2%
Cc1ccc(-c2cc3c(nn2)-c2ccccc2C3=O)cc1,214 nM,< 0%,33.1%,51.8%,59.3%
N#Cc1nc(Cc2cccc3ccccc23)oc1N1CCN(C(c2ccccc2)c2ccccc2)CC1,5260 nM,44.8 ± 8.8%,21.5%,27.3%,52.8%
Oc1ccc(C(=C(Cl)Cl)c2ccc(O)cc2)cc1,877 nM,78.3 ± 3.7%,11.4%,53.3%,73.2%
COc1cc(OC)cc(N2C(=O)N(Cc3ccc(C(C)(C)C)cc3)c3ccccc3S2(=O)=O)c1,3500 nM,57.3 ± 12%,13.8%,15.2%,47.7%
CC(C)(C)c1ccc(C2CC3=Nc4ccccc4N(C(=O)c4ccccc4Cl)C(c4ccc(F)cc4)C3=C(O)C2)cc1 (stereo not drawn),3410 nM,68.4 ± 10%,< 0%,5.12%,41.6%
COc1cccc(Cn2c(Oc3ccccc3)nc3c2c(=O)n(C)c(=O)n3C)c1,516 nM,72.4 ± 4.8%,23.6%,27.1%,45.9%
COc1ccc(-c2cn3c(C(=O)Nc4ccccc4Cl)c(-c4ccccc4)c4c3n2CCCC4)cc1,7130 nM,42.7 ± 28%,12.5%,30.4%,62.3%
COc1ccc(C(=O)C2CC2c2ccc(Cl)cc2)cc1 (stereo not drawn),2700 nM,22 ± 8.6%,8.22%,39.3%,58.3%
Cc1ccc2cc3c(N)c4c(C)ccc(C)c4nc3nc2c1,432 nM,56.3 ± 6.5%,29%,72.1%,79.8%
CCN(CC)CCCNc1ccnc2cc3ccccc3cc12,312 nM,29.2 ± 27%,19.5%,41.2%,42.7%

SMILES,EC50 growth inhibition [1],% growth inhibition [2],% inhibition of schizont-to-ring transition ([3]; 1 µM),% inhibition of schizont-to-ring transition ([3]; 3 µM),% inhibition of schizont-to-ring transition ([3]; 10 µM)
FC(F)(F)c1cccc(CNC2CCN(CCc3ccccc3)CC2)c1,201 nM,45.5 ± 8.4%,23.2%,60%,69.5%
CCOc1ccc(Nc2ccnc3cc(Cl)ccc23)cc1,3740 nM,64.1 ± 7.2%,23.3%,27.2%,30%
OC1CCCCC1C1(NC(=S)Nc2ccccc2)CCCCC1 (stereo not drawn),1510 nM,64 ± 2.9%,23.3%,45.7%,53.4%
CCCCN(CCCC)S(=O)(=O)c1ccc(NC(=O)c2ccco2)cc1,1530 nM,74.8 ± 2.1%,20%,26.6%,50.7%
O=C(NCc1ccco1)C1CCN(S(=O)(=O)c2ccc(Cl)cc2)CC1,1030 nM,55.4 ± 6.6%,21.3%,34.6%,57.8%
CCOc1cc2c(cc1OCC)C(c1cc(Cl)ccc1O)NCC2 (stereo not drawn),1800 nM,46.8 ± 4.8%,3.63%,17.7%,64.1%
COc1cc(SC)ccc1C(=O)N1CCCC(C)C1 (stereo not drawn),3240 nM,33.1 ± 4.9%,0.295%,< 0%,12.1%
CCCc1c(C)nc2ccc(Br)cc2c1O,4280 nM,39.6 ± 25%,17%,24%,44.8%
FC(F)(F)c1cccc(Nc2nc(-c3ccccc3)nc3ncccc23)c1,–,51.1 ± 1.4%,24.9%,33.8%,42.3%
Oc1c2c(nc3cc(-c4ccccc4)nn13)CCCC2,3790 nM,26.5 ± 12%,0.423%,6.47%,21.9%
Cc1[nH]c(-c2ccc(F)cc2)cc1C(=O)NC1CCN(Cc2ccccc2)CC1,580 nM,44.1 ± 26%,25.3%,47%,64.1%
Cc1cccc(-n2ncc3c(O)nc(-n4nc(C)cc4NC(=O)c4cc5ccccc5o4)nc32)c1,–,30.2 ± 52%,16.7%,23.7%,27.8%
Cc1cc(Nc2ccc3ccccc3c2)n2ncnc2n1,53.7 nM,24.1 ± 23%,57.1%,61.7%,61.5%
Cc1ccc(C)c(Cn2c(N3CCC(C(=O)NCc4cccs4)CC3)nc3ccccc32)c1,6140 nM,79.1 ± 1.9%,18.6%,69.7%,68.4%
CCOC(=O)c1cnc2c(C)cccc2c1Nc1ccc(C(C)=O)cc1,550 nM,79.3 ± 2.5%,28.3%,45.9%,51.5%
COc1ccc2nc(C)cc(Nc3ccccc3O)c2c1,438 nM,22.7 ± 2.9%,20.4%,41.3%,66.3%
CN(C)CCNc1cc(-c2ccccc2)nc2ccccc12,936 nM,66.7 ± 1.5%,6.36%,21.7%,63.2%
CCN(CC)CCNc1ncnc2c1[nH]c1ccc(Cl)cc12,230 nM,23.3 ± 2.6%,16.1%,52%,66.5%
c1ccc(Cn2c(N=Nc3c(Nc4ccccc4)ccc4ccccc34)nc3ccccc32)cc1,3520 nM,29.1 ± 12%,14.6%,25.9%,52.2%

SMILES,EC50 growth inhibition [1],% growth inhibition [2],% inhibition of schizont-to-ring transition ([3]; 1 µM),% inhibition of schizont-to-ring transition ([3]; 3 µM),% inhibition of schizont-to-ring transition ([3]; 10 µM)
Cc1cc(NCCN2CCCCC2)c2ccc3ccccc3c2n1,123 nM,78.3 ± 6.7%,46.4%,52.1%,69.7%
COc1ccc(C(C)=O)cc1N1C(=O)C2C(C1=O)C1(c3ccccc3)C(=O)C2(c2ccccc2)C(c2ccc(C)cc2)=C1c1ccc(C)cc1 (stereo not drawn),273 nM,79.2 ± 1.3%,7.25%,20.5%,44.9%
O=C(Nc1ccc(C23CC4CC(CC(c5ccccc5)(C4)C2)C3)cc1)c1cccs1,7300 nM,76.8 ± 7.4%,17.5%,21.8%,42.3%
Cc1ccc(OCCCCCCNCCO)c(C)c1,2870 nM,76.2 ± 4.2%,6.39%,6.91%,13.8%
C=CCc1c(C)nc2ccccc2c1O,2260 nM,72.7 ± 2.5%,27.3%,29.6%,40.5%
CC(C)(C)CC(C)(C)NCC(O)COc1ccc2c(c1)CCC2 (stereo not drawn),4380 nM,61.6 ± 1.5%,17.3%,26.1%,47.6%
COc1ccc(C(=O)NC(c2ccc(Cl)cc2Cl)c2cc(Cl)c3cccnc3c2O)cc1 (stereo not drawn),–,32.1 ± 5.2%,19.2%,19.5%,25.5%
Nc1ccc(-c2nc3cc(Cc4ccc5[nH]c(-c6ccc(N)cc6)nc5c4)ccc3[nH]2)cc1,218 nM,59.1 ± 11%,51.3%,70.1%,76%
O=C(Nc1ccc(-c2nc3cc4ccccc4cc3[nH]2)cc1)c1cccc(Br)c1,4310 nM,50.3 ± 8.7%,10.2%,38.5%,61.9%
COc1ccc(C2=C(c3ccc(OC)cc3)C3(c4ccccc4)C(=O)C2(c2ccccc2)C2C(=O)N(c4ccc(C)cc4)C(=O)C23)cc1 (stereo not drawn),–,41.5 ± 7.4%,< 0%,< 0%,24.9%
CCOC(=O)C1=C(C)N=c2sc(=Cc3cc(Cl)ccc3O)c(=O)n2C1c1ccc(OC)cc1 (stereo not drawn),–,59.4 ± 6.4%,0.526%,46.2%,61.3%
Cc1ccccc1OCCSc1nc2ccc(NC(=O)c3ccccc3)cc2s1,–,29.6 ± 11%,32%,33%,43.1%
CCC(=O)Nc1nnc(Cc2ccc(OC)c(OC)c2)s1,–,56.6 ± 7.6%,4.3%,5.07%,13.6%
O=C(Nc1ccc(-c2nc3cc(NC(=O)c4ccc(Cl)cc4)ccc3[nH]2)cc1)c1ccc(Cl)cc1,–,21.6 ± 3%,< 0%,18.9%,41.1%
COc1ccc2nc(N)nc(C)c2c1,–,41.7 ± 16%,2.26%,6.22%,17.5%
CC(C)(C)c1ccc(C(=O)Nc2c3c(nn2-c2cccc(Cl)c2)CSC3)cc1,–,46.7 ± 4.1%,15.4%,19.9%,32.6%
CCCCc1ccc(NS(=O)(=O)c2cc3c4c(c2)CCN4C(=O)CC3)cc1,–,36.5 ± 32%,12%,12.8%,34.4%
CN1CCN(c2c3c(c(C#N)c4nc5ccccc5n24)CCC3)CC1,–,39.4 ± 4.5%,< 0%,5.66%,21.3%
